Measurements published in patent US20250243160A1, “INDOLE DERIVATIVES FOR TARGETING AUTOPHAGY” (Automera PTE. LTD, priority 2024, published 2025).

How the values were obtained:
Recombinant p62 protein = Recombinant p62 protein (Homo sapiens, UniProt Q13501); test: Surface plasmon resonance (SPR) compound binding to p62; settings: 15° C
Method: Recombinant p62 protein was buffer exchanged into Biacore SPR running buffer (Cytiva 100671) using the Slide-A-Lyzer Mini Dialysis system 7K MWCO (Thermo Fisher Scientific, Cat no. 69560). The final protein concentration was determined using the Nanodrop One spectrophotometer (Thermo Fisher Scientific, cat no. ND-ONE-W), with calibration for the dialysis buffer.
The prepared protein was diluted in sodium acetate buffer (NaAc, pH 5.5, Cytiva) to concentrations ranging from approximately 0.25-40 μg/mL. Post-immobilization, the protein required approximately 16 hours of equilibration in running buffer supplemented with 1% DMSO at 15° C. to ensure adequate surface equilibration and protein reorganization.
All SPR experiments were conducted at a constant temperature of 15° C. The SPR chip surface was activated using EDC/NHS for a contact time of 6-10 min at a flow rate of 10 μL/min. This was followed by protein immobilization for 2100 seconds and ethanolamine capping for 420 seconds, both at the same flow rate. Immediately after immobilization, the NH2-REEE peptide was analyzed in Single Cycle Kinetics mode (SCK) to verify surface activity, ensuring it binds the sample with the published affinity (˜20 μM by SPR).
For general compound binding studies, experiments were performed at 15° C. using a running buffer composed of 10 mM HEPES, 150 mM NaCl, 1 mM DTT, 0.05% Tween 20, and 1% DMSO at pH 7.4. The test compound was initially prepared at a 20 mM concentration in DMSO and subsequently titrated in 2-fold dilutions. For each assay, 2 μL of the compound was mixed with 198 μL of the running buffer, and the mixture was thoroughly pipetted approximately 15 times for homogenization.
A series of blank injections (0 μM concentration) were included for double referencing, with at least 8 or 16 per plate depending on the format. Typical injection parameters were 120 seconds for association and 180 seconds for dissociation at a flow rate of […]. A four-point solvent correction was prepared with DMSO concentrations ranging from 2% to 0.5% in the buffer. Post each compound injection, the system's needles were washed with 50% DMSO.
Analysis of the SPR data was conducted using the Cytiva Evaluation software. The binding levels at the late time-point of each interaction were corrected for reference, then normalized to percentage bound values to account for variations in immobilization levels, protein molecular weight, and compound molecular weight.
Compound binding studies were carried out according to experimental procedures above and SPR % occupancy was determined and summarized in Table 7.

p62 oligomers = target: T1, p62 oligomers (Homo sapiens, UniProt Q13501); test: p62 oligomerization assay by Western blot in HeLa cells; assay type: cell-based; settings: 24 hours treatment, relative to vehicle control (DMSO)
T1 construct: endogenous in cells; host or cells: HeLa
T1 sequence (Q13501 whole entry): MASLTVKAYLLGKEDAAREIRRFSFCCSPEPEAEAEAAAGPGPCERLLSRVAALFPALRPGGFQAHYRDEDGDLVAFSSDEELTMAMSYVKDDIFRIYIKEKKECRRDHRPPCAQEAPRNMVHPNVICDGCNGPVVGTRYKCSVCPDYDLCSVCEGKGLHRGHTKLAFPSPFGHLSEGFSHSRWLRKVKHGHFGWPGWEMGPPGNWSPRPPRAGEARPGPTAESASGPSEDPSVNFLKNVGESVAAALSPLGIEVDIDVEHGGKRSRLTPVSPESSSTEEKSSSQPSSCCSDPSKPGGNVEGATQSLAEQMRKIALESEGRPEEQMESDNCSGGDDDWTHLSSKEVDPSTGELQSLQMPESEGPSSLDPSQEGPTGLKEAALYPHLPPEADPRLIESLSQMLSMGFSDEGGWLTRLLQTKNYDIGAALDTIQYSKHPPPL
Method: (§1) HeLa cells were seeded in 6-well plates (700,000 cells) and allowed to adhere overnight. Media was replaced one hour before administering either vehicle (DMSO) or test compounds. After 24 hours of treatment, the media was discarded, and cells were rinsed once with ice-cold 1×PBS before detached from plates with ice-cold RIPA Lysis and Extraction Buffer (Thermo Fisher Scientific) which was supplemented with protease and phosphatase inhibitors. The resulting cell suspensions were transferred to pre-chilled microcentrifuge tubes, incubated on ice for 20 min with intermittent mixing and then centrifuged at 12,000 rpm for 20 min at 4° C. The supernatants were then aspirated slowly and transferred into new tubes kept on ice. The protein concentration in the samples was determined using BCA kit (Thermo Fisher Scientific) as per manufacturer's instructions.
(§2) For the p62 oligomerization and LC3 lipidation assays, cell lysates were prepared using RIPA buffer supplemented with 2% SDS and benzonase (Sigma). The lysates were then combined with 4× Laemmli protein sample buffer (Bio-Rad), heated at 70° C. for 10 min and subjected to a brief centrifugation of 10-15 seconds.
(§3) For p62 oligomerization and LC3 lipidation assays, lysates containing 30 μg of protein and for BRD4 and FKBP12(F36V) degradation assays, lysates containing 20 μg of protein, were loaded slowly into the wells of 4-20% gradient Tris-glycine gels (Bio-Rad). The gels were run at 100V until completion and transferred onto PVDF membranes. Membranes were blocked using 5% milk in TBS-Tween (0.1%) buffer at room temperature for 1 hour. The membranes were incubated with primary antibody in 5% milk-TBST with shaking, overnight at 4° C. The primary antibodies used were: p62 (Novus Biologicals 2C11, H00008878-MO1), LC3A/B (Cell Signalling Technology D3U4C, 12741S), FKBP12 (Abcam ab24373), BRD4 (Cell Signalling Technology E2A7X, 13440S), GAPDH (Cell Signalling Technology D4C6R, 97166S), and β-Actin (Proteintech 66009-1-Ig). Following primary antibody incubation, membranes were washed thrice with TBST 10 min before and after incubation with secondary-HRP conjugated antibody in 5% milk-TBST for 1 hour at room temperature. The secondary antibodies used were: Anti-Mouse IgG HRP Conjugate (Promega W4021B) and Anti-Rabbit IgG HRP Conjugate (Promega W4011). For the p62 oligomerization assay, the total protein levels were assessed using Ponceau staining (Thermo Fisher Scientific) of PVDF membrane as per recommendation by manufacturer's guidelines.
(§4) Imaging was acquired using SuperSignal™ West Pico PLUS Chemiluminescent Substrate (Thermo Fisher Scientific) with iBright Invitrogen FL100 imaging system. Band signal intensity, reflective of protein concentrations, were quantified using Invitrogen™ iBright™ Analysis and Image J software.
HeLa cells were treated with compounds for 24 hours to evaluate the effect of these compounds on p62 oligomerisation activity. The resulting changes in levels of p62 oligomers were assessed by Western blotting, as described in experimental procedures. The fold change of p62 oligomer levels induced by compound treatment relative to vehicle control (DMSO) was determined and summarized in Table 8. Specifically, FIGS. 2A-C show Western blot images and their corresponding quantification showing the levels of high molecular weight (100-200 kDa) p62 oligomers by 24 hours compound treatments at listed concentrations, relative to vehicle control (DMSO) in HeLa cells. Protein loading consistencies was assessed by Ponceau staining (not shown).

LC3 protein = test: LC3 lipidation (LC3-II/LC3-I) assay by Western blot in HeLa cells; assay type: cell-based; settings: 24 hours treatment, relative to vehicle control (DMSO)
Method: as §1, §2, §3, §4
HeLa cells were treated with compounds for 24 hours to evaluate the effect of these compounds on LC3-II/LC3-I levels, a measure of autophagy activation. The changes in levels of LC3-I, LC3-II and […] (loading control) were assessed by Western blotting, as described in experimental procedures. The fold increase of LC3-II/LC3-I levels induced by compound treatment relative to vehicle control (DMSO) was determined and summarized in Table 9. Specifically, FIGS. 3A-C show Western blot images and their corresponding quantification showing the lipidation levels of LC3 protein (LC3-II/LC3-I) by 24 hours compound treatments at listed concentrations, relative to vehicle control (DMSO) in HeLa cells.

p62 puncta = p62 puncta immunocytochemistry imaging in HeLa cells; assay type: cell-based; settings: 24 hours treatment, relative to vehicle control (DMSO)
Method: HeLa cells were seeded in coated 96-well plates (10,000 cells) and allowed to adhere overnight. After 24 hours of treatment with either vehicle (DMSO) or test compounds, the media was discarded, and cells were rinsed with ice-cold 1×PBS before fixation by 4% formaldehyde or paraformaldehyde for 20 min. Cells were then washed with 1×PBS and permeabilized with 0.1% Triton X-100 in PBS for 20 min and blocked with Blocking Buffer in PBS for 1 hour. The cells were incubated thereafter for 1 hour with anti-p62 primary antibody in Blocking Buffer, followed by incubation with secondary antibody for 1 hour. DAPI dye was used to visualize nuclei of fixed cells. The blocking buffer used were 5% Fetal Bovine Serum (FBS, ThermoFIsher Scientific, 10270106) and Li-cor Intercept (PBS) Blocking Buffer (Li-cor, 927-70001). The primary antibody used was mouse anti-p62 primary antibody (Novus Biologicals, H00008878-M01). The secondary antibodies used were goat anti-mouse Alexa Fluor Plus 488 secondary antibody (Invitrogen, GOXMS) and goat anti-mouse Alexa Fluor 488 secondary antibody (Invitrogen, A-11029). The DAPI dyes used were DAPI dye (Invitrogen, 62248) and DAPI dye (Invitrogen, D1306).
For the EVOS M7000 System, cells were imaged on the EVOS M7000 microscope using a 20× air objective (Nikon, N.A 0.45). DAPI and p62 channels were illuminated with LED light cubes using integrated hard-coated filter sets for DAPI (357/447 nm) and GFP (470/525 nm) respectively. Images were analysed for p62 puncta count on the Celeste 6.0 software.
For the Operetta CLS System, cells were imaged on the Operetta CLS using a 63× water objective on the DAPI and Alexa 488 channels. Images were analysed for p62 puncta count on the Harmony 5.1 software.
HeLa cells were treated with compounds for 24 hours to evaluate the effect of these compounds on p62 puncta activity. The resulting changes in levels of p62 puncta were assessed by imaging, either on the EVOS M7000 or Operetta CLS systems as described in experimental procedures. The fold change of p62 puncta levels induced by compound treatment relative to vehicle control (DMSO) was determined and summarized in Table 10.

Chain of Recombinant p62 protein (Q13501 whole entry, species assumed): as the sequence (Q13501 whole entry) above

| receptor occupancy at 100 µM (Recombinant p62 protein) [%] | SMILES | further results |
| --- | --- | --- |
| 30 to 70 | OCCNCc1cccc2c1ccn2Cc1cccc(Cl)c1 [Compound 13] | p62 oligomerization (fold change of p62 oligomer levels) (p62 oligomers): ++ (>2-fold change relative to DMSO control); LC3 lipidation (fold increase of LC3-II/LC3-I levels) (LC3 protein): + (<2-fold change in LC3-II/LC3-I relative to DMSO control) |
| 30 to 70 | CC(C)NCC(O)COc1cccc2c1ccn2Cc1ccccc1 (centres unmarked) [Compound 6, 1-((1-benzyl-1H-indol-4-yl)oxy)-3-(isopropylamino)propan-2-ol] | p62 oligomerization (fold change of p62 oligomer levels) (p62 oligomers): ++ (>2-fold change relative to DMSO control); LC3 lipidation (fold increase of LC3-II/LC3-I levels) (LC3 protein): + (<2-fold change in LC3-II/LC3-I relative to DMSO control) |
| 30 to 70 | O=S(=O)(c1ccccc1)n1ccc2c(CNCCO)cccc21 [Compound 17, 2-(((1-(phenylsulfonyl)-1H-indol-4-yl)methyl)amino)ethan-1-ol] |  |
| < 30 | OCCNCc1cncc2c1ccn2Cc1ccccc1 [Compound 51] |  |
| < 30 | OCCNCc1cccc2c1ccn2CC1CCNCC1 [Compound 25, 2-(((1-(piperidin-4-ylmethyl)-1H-indol-4-yl)methyl)amino)ethan-1-ol] |  |
| < 30 | O=C(CCO)Nc1cccc2c1ccn2Cc1ccccc1 [Compound 8] |  |
| 30 to 70 | OCCNCc1c(Cl)ccc2c1ccn2Cc1ccccc1 [Compound 36] |  |
| < 30 | OCCNCc1cccc2c1CCN2Cc1ccccc1 [Compound 40, 2-(((1-benzylindolin-4-yl)methyl)amino)ethan-1-ol] |  |
| > 70 | O=C(c1ccccc1)n1ccc2c(CNCCO)cccc21 [Compound 16, (4-(((2-hydroxyethyl)amino)methyl)-1H-indol-1-yl)(phenyl)methanone] |  |
| < 30 | CC(C)(C)OC(=O)NCCOCCOCCOCCNCc1cccc2c1ccn2Cc1ccc(F)cc1 [Compound 84, tert-butyl (1-(1-(4-fluorobenzyl)-1H-indol-4-yl)-5,8,11-trioxa-2-azatridecan-13-yl)carbamate] |  |
| < 30 | OCCNCc1cccc2c1ccn2CC1CCCCN1 (centres unmarked) [Compound 54] | p62 puncta (fold change of p62 puncta levels) (p62 puncta): ++ (>2-fold change in p62 puncta levels relative to DMSO control) |
| < 30 | OCCNCc1cccc2c1CN(Cc1ccccc1)C2 [Compound 42, 2-(((2-benzylisoindolin-4-yl)methyl)amino)ethan-1-ol] |  |
| < 30 | OC1CC(NCc2cccc3c2ccn3Cc2ccccc2)C1 (centres unmarked) [Compound 7] | p62 puncta (fold change of p62 puncta levels) (p62 puncta): + (<2-fold change in p62 puncta levels relative to DMSO control) |
| < 30 | CC(C)OCCNCc1cccc2c1ccn2Cc1ccccc1 [Compound 47] |  |
| < 30 | O=C(CCO)NCc1cccc2c1ccn2Cc1ccccc1 [Compound 52] |  |
| < 30 | OCCNCc1cccc2c1ccn2Cc1ncc[nH]1 [Compound 22] |  |
| < 30 | OCCNCc1cccc2c1ccn2CCc1cccnc1 [Compound 29] |  |
| 30 to 70 | CNCCOCc1cccc2c1ccn2Cc1ccccc1 [Compound 5, 2-((1-benzyl-1H-indol-4-yl)methoxy)-N-methylethan-1-amine] | p62 puncta (fold change of p62 puncta levels) (p62 puncta): + (<2-fold change in p62 puncta levels relative to DMSO control) |
| < 30 | O=C(NCCO)c1cccc2c1ccn2Cc1ccccc1 [Compound 4, 1-benzyl-N-(2-hydroxyethyl)-1H-indole-4-carboxamide] |  |
| < 30 | OCCNCc1ccnc2c1ccn2Cc1ccccc1 [Compound 50] |  |
| < 30 | CC(C)NCCN1Cc2cccc(CNCCO)c2C1 [Compound 43] |  |
| 30 to 70 | COc1ccc(Cn2ccc3c(CNCCO)cccc32)cc1 [Compound 15] |  |
| 30 to 70 | CC(O)CNCc1cccc2c1ccn2Cc1ccccc1 (centres unmarked) [Compound 3] | p62 puncta (fold change of p62 puncta levels) (p62 puncta): + (<2-fold change in p62 puncta levels relative to DMSO control) |
| < 30 | OCCNCc1ccc2ccn(Cc3ccccc3)c2c1 [Compound 2] |  |
